# Data taken from patent US20220193185A1, “COMBINATION OF SYNTHETIC PEPTIDES WITH AFFINITY TO THE TGF-ß RECEPTOR AND WITH AFFINITY TO THE IL-10 RECEPTOR, PHARMACEUTICAL COMPOSITION AND THEIR USE AS IMMUNOMODULATORS IN THE TREATMENT OF AUTOIMMUNE, INFLAMMATORY OR ALLERGIC DISEASES” (Universidade Federal de Uberlândia, priority 2019, published 2022).
# Bridges are numbered along the chain shown (N, C = ends). Where no end group is shown, it is not given here.
# Assays:
# IL-8 gene expression = assay: luciferase reporter under control of the IL-8 promoter in TNF-α stimulated A549 cells; format: cell-based, human
# Text: First, we tested the ability of the synthesized peptides to recognize TGF^RII on the surface of Jurkat cells, immortalized human T lymphocytes, using ELISA. The recombinant TGFβ (rTGFβ1) was used as a positive control. […] To investigate IL-8 cytokine production, we used an immortalized human lung epithelial cell line (A549), which plays an important role in the first defense line to foreign compounds. […] A mediator release assay, based on rat basophilic leukemia (RBL) cells bearing humanized FIERI receptor, was performed to investigate the effect of the synthesized peptides on IgE-mediated degranulation of basophils in an already sensitized system. This sensitive cell-based assay may help to understand the action of the mimetic peptide in an established allergic microenvironment.
# Jurkat cells = assay: cytokine secretion in MMA-stimulated Jurkat cells; format: cell-based, human
# NFkB pathway = assay: NFkB expression in Jurkat-Dual reporter cells, luciferase (IL-10 mimetic peptides); format: cell-based; settings: without activating molecules; 12, 24 and 48 hours; different concentrations
# Method: (§1) In order to investigate the ability of synthetic peptides with affinity to the Interleukin-10 receptor to interfere in the NFkB, IFN and TLR4 pathways, reporter cell lines were used. To analyze whether the isolated peptides (without activation molecules) could induce any type of activation, the isolated peptides were tested in cell lines during 12, 24 and 48 hours of treatment. […] As an example, FIG. 13A, FIG. 13B, and FIG. 13C show an analysis of NFkB expression after stimulation with the synthesized IL-10 receptor affinity synthetic peptides described herein. Cells were treated for 12, 24 and 48 hours with the synthesized peptides Pep 1-IL10, Pep 2-IL10, Pep 3-IL10 and Pep 4-IL10, at different concentrations, without activating molecules. Luciferase was then measured after 12 hours of treatment (FIG. 13A), 24 hours of treatment (FIG. 13B) and 48 hours of treatment (FIG. 13C). […] TNF-α (200 ng/mL) was used as a positive control.
# The assay was then carried out using TNF-α as activation molecule not only in the control, but after a pretreatment with the synthesized peptides Pep 1-IL10, Pep 2-IL10, Pep 3-IL10 and Pep 4-IL10, at different concentrations. All peptides were able to modulate NFKB activation after 12, 24 and 48 hours, with different results depending on the concentrations used. […] In the assays shown by FIGS. 14 A, B and C, analysis of NFkB expression was performed in Jurkat-Dual reporter cells. Cells were treated for 1 hour with peptides and TNF-α (200 ng/ml) added. Luciferase was measured after 12 hours of treatment (FIG. 14A), 24 hours of treatment (FIG. 14B) and 48 hours of treatment (FIG. 14C).
# Another assay was then performed in which cells were pretreated with TNF-α and the synthesized peptides Pep 1-IL10, Pep 2-IL10, Pep 3-IL10 and Pep 4-IL10, at different concentrations, were added later. All peptides were able to modulate NFKB activation after 12, 24 and 48 hours, with different results depending on the concentrations used. The most significant results will be described below. […] After 48 hours of treatment, Pep 1-IL-10 at a concentration of 0.001 μM (P<0.05) was the one that obtained a result with the highest statistical significance in the decrease of NFKB signaling (FIG. 15C). In the assays shown by FIGS. 15 A, B and C, analysis of NFkB expression was performed in Jurkat-Dual reporter cells. Cells were treated for 1 hour with TNF-α (200 ng/ml) and peptides were added. Luciferase was measured after 12 hours of treatment (FIG. 15A), 24 hours of treatment (FIG. 15B) and 48 hours of treatment (FIG. 15C). TNF-α (200 ng/mL) was used as a positive control and rlL-10 (recombinant Interleukin-10) (0.4 ng/mL) as a negative control. *P<0.05; **P<0.005; ***P<0.0005.
# IFN signaling pathway = IFN signaling pathway in Jurkat-Dual reporter cells, SEAP production; format: cell-based; settings: after 12, 24 and 48 hours; results depend on concentration
# Method: as §1
# The most significant results will be described below. […] When cells were pretreated with IFN, although peptides at some concentrations indicated results, they were not statistically sufficient. Therefore, we cannot confirm whether they were able to interfere with pathway activation (FIGS. 17 A, B and C) in an equal or better way than the negative control (rIL-10). In the assays shown by FIGS. 16 (A, B and C) and FIGS. 17 (A, B and C), analysis of IFN expression was performed in Jurkat-Dual reporter cells. In the assays shown by FIGS. 16 A, B and C, cells were treated for 1 hour with peptides with further addition of IFN-α (104 EU/ml). Secreted Embryonic Alkaline Phosphatase (SEAP) production was measured after 12 hours of treatment (FIG. 16A), 24 hours of treatment (FIG. 16 B) and 48 hours of treatment (FIG. 16 C). In the assays shown by FIGS. 17A, B and C, cells were treated for 1 hour with IFN-α (104 EU/ml) with further addition of the peptides. SEAP production was measured after (A) 12 hours of treatment (B), 24 hours of treatment and (C) 48 hours of treatment. IFN-α (104 EU/ml) was used as a positive control and rlL-10 (0.4 ng/ml) as a negative control. *P<0.05.
# TLR4 signaling pathway = TLR4 signaling pathway in HEK cells, SEAP production (IL-10 mimetic peptides); format: cell-based; settings: cells pretreated with LPS 100 ng/ml, peptides added; 12 hours
# Method: as §1
# HEK cells were used to investigate the ability of the synthesized peptides Pep 1-IL10, Pep 2-IL10, Pep 3-IL10 and Pep 4-IL10 to modulate the activation of the TLR4 signaling pathway after 12 hours of treatment. […]
# In the assay shown by FIG. 14A cells were treated 1 hour with peptides and LPS (100 ng/ml) was added. SEAP production was measured after 12 hours of treatment. […] SEAP production was measured after 12 hours of treatment. […]
# [1] = test system: splenocytes of mice sensitized with Phl p 5; assay: Luminex Multiplex cytokine analysis of supernatants from restimulated splenocytes; format: in vivo
# Method: (§2) To determine the number of splenic cells producing IFN-g, IL-4 and IL-10 in all groups of mice, an ELISPOT assay was performed. […] To investigate the cytokine profile in supernatants from restimulated splenocytes, a Luminex Multiplex cytokine analysis kit was used. […] Furthermore, an increase in IL-10 levels was observed.
# [2] = test system: TGF-β1 receptor on A549 cells; assay: ELISA on cells of the A549 line using anti-TGF-β1 antibody; format: binding, human
# Method: The peptides described in this patent application were selected using the Phage Display (PD) methodology. The selection was performed by evaluating the ability of said peptides to recognize the TGF-β1 receptor on A549 cells, using an ELISA assay. MaxiSorp 96-well microtiter plates were coated with 1×10^6 cells diluted in PBS and incubated overnight at 4° C. Cells were blocked with 3% PBS-BSA for 1 h at 37° C., washed once with PBS and incubated with […] of each TGF-β1 mimetic peptide or 5 ng/ml of recombinant TGF-β1 for 1 h at 37° C. After washing, the plate was incubated for 1 h at 37° C. with anti-TGF-β1 antibody. The plate was washed and incubated with HRP-labeled anti-human IgG antibody for 1 h at 37° C. After washing, TMB substrate solution was added to the plate; the reaction was stopped by adding the 2N H2SO4 solution and read at 492 nm in a microplate reader.
# To investigate whether the synthesized peptides could bind to cell receptors, an ELISA assay was performed on cells of the A549 line using commercial anti-TGF-β1 antibody.
# [3] = test system: splenocytes of mice sensitized with Phl p 5; assay: ELISPOT of splenocytes stimulated with Phl p5; format: in vivo
# Method: as §2
# [4] = test system: mice sensitized by Phl p5; assay: murine sensitization model with recombinant Phl p5: antibody response; format: in vivo
# Text: We then tested the ability of the synthesized TGF-β1 mimetic peptides to modulate the in vivo immune response during allergic sensitization to Phl p 5. We selected as an example Pep 2-TGF-β1 to show the results. […] Therefore, Pep 2-TGF-β1 modulated Phl p5-specific antibody responses in mice.
# Treg cells = assay: flow cytometry of CD4+CD25+Foxp3+ cells in splenocytes from BALB/c mice; format: in vivo
# Text: To investigate the influence of synthesized peptides mimetic to TGF-β1 on Treg induction specific to Phl p5 during allergic sensitization, we analyzed splenocytes from BALB/c mice using flow cytometry. We sought to investigate CD4+CD25+Foxp3+cells expressing GATA3, CTLA4 or KI67, as these factors are necessary for the survival and function of Treg cells. […] The percentage of CD4+CD25+Foxp3+T cells expressing the CTLA4 factor in mice without sensitization and sensitized with Phl p 5 was 5.62% and 9.46%, respectively, while in mice treated with Pep 2-TGF-β1 this value was 12.5% (FIG. 10C-D).
# [5] = test system: TH2 polarization in skin-draining inguinal lymph node cells; assay: TH2 polarization in IL-4 reporter (4get) mice, GFP+CD4+ lymphocytes by flow cytometry; format: in vivo; settings: 5 days after immunization, administered with grass pollen extract
# Text: TH2 lymphocytes produce cytokines such as IL-4, IL-5 and IL-13 and lead to the class shift of immunoglobulin production from B cells to IgE, which triggers the allergic reaction. To investigate whether synthesized peptides mimetic to TGF-β1 can modulate TH2 polarization in the presence of grass pollen extract or rPhl p 5, we used an IL-4 reporter mouse. 4get mice express GFP as part of a bicistronic IL-4-IRES-GFP mRNA, allowing the identification of cells expressing IL-4 in situ during an allergen-induced TH2 response. In this experiment, we use skin-draining inguinal lymph node cells to monitor the TH2 response. […] In summary, in this IL-4 mice model, Pep 2 administered in combination with grass pollen extract was able to inhibit TH2 polarization in skin-draining inguinal lymph node cells.
substance,measurement,setting,value
rTGFβ: recombinant TGFβ (rTGFβ1) used as a positive control,IL-8 gene expression (luciferase reporter),IL-8 gene expression,decreased IL-8 gene expression
same,IL-10 secretion,Jurkat cells,increased IL-10 secretion
same,TNF-α secretion,Jurkat cells,significantly decreased TNF-α secretion
"Pep 2-IL-10: synthetic peptide with affinity to the Interleukin-10 receptor, SEQ ID NO: 10, without disulfide bridge (HASSAVIKSSSGGGS)",induction of NFkB expression by peptides alone,NFkB pathway,not able to induce any response
same,modulation of the activation of the IFN signaling pathway,IFN signaling pathway,able to modulate the activation of the IFN signaling pathway
same,concentrations that significantly reduced TLR4 pathway activation,TLR4 signaling pathway,"100 μM (P<0.05), 1 μM (P<0.005), 0.5 μM (P<0.05), 0.1 μM (P<0.05), 0.05 μM (P<0.05) and 0.01 μM"
"Pep 2-TGF-β1: synthetic peptide with affinity to the TGF-β receptor, SEQ ID N 02, with disulfide bridges (HACESPLKRQCGGGS; disulfide 3-11)",IFN-g secretion in splenocyte supernatant vs untreated mice,[1],significantly lower
same,IL-2 secretion in splenocyte supernatant vs untreated mice,[1],significantly lower
same,IL-4 secretion in splenocyte supernatant vs untreated mice,[1],significantly lower
same,IL-5 secretion in splenocyte supernatant vs untreated mice,[1],significantly lower
same,IL-10 secretion in splenocyte supernatant vs untreated mice,[1],higher
same,IL-13 secretion in splenocyte supernatant vs untreated mice,[1],significantly lower
same,recognition of receptor-bound peptide by anti-TGF-β1 antibody compared to recombinant TGF-β1,[2],in the same way that the antibody recognized the TGF-β1 recombinant molecule
same,IFN-g secreted by splenocytes (ELISPOT) vs untreated mice,[3],significantly lower
same,IL-4 secreted by splenocytes (ELISPOT) vs untreated mice,[3],significantly lower
same,IL-10 levels of splenocytes (ELISPOT) vs untreated mice,[3],significantly higher
same,degranulation of RBL cells sensitized with sera from treated mice vs Phl p 5 immunized group,"[4]; 1 μM, intradermal immunization with Phl p5",significantly lower levels of degranulation
same,serum IgA levels (ELISA),[4]; mice sensitized by Phl p5,increased levels of IgA
same,serum IgE levels (ELISA),[4]; mice sensitized by Phl p5,suppressed
same,serum IgG1 levels (ELISA),[4]; mice sensitized by Phl p5,suppressed
same,serum IgG2a levels (ELISA),"[4]; mice sensitized by Phl p5, not statistically significant",suppressed
same,Treg cells expressing the factor GATA3 (of total T cells),"Treg cells; mice sensitized with Phl p5 and treated, control 16.1%, sensitized 16.2%",43.9%
same,percentage of CD4+CD25+Foxp3+T cells expressing the CTLA4 factor,"Treg cells; mice sensitized with Phl p5 and treated, no sensitization 5.62%, sensitized 9.46%",12.5%
same,percentage of CD4+CD25+Foxp3+cells expressing factor KI67,"Treg cells; vs Phl p5-sensitized mice, not significantly different",enriched
same,TH2 polarization (GFP+CD4+ lymphocytes),[5],suppressed TH2 polarization
